Results as given in patent publication US20060100168A1, “Method of treating cancer using adenosine and its analogs” (The Trustee of Boston University, priority 2002, published 2006).
Several values for one entry are separate records, joined by “and”; a condition that tells them apart may be missing. Equal entries are not always repeated.

Columns and labels:
Type in all cases: cell-based, human
MCF-7 cells [1] = experiment: Cell cycle analysis by flow cytometry
Description: Flow Cytometry and Apoptosis Analysis: Cells were detached from tissue culture plates by trypsin treatment. Cells were collected by centrifugation at 1200 g for 5 minutes and washed once with PBS. Staining of cells with propidium iodide and analysis on a flow cytometer (FACScan, Becton Dickinson, Research Triangle Park, N.C.) was performed as described before (42). Data were analyzed with CellQuest software (Becton Dickinson, Research Triangle Park, N.C.). The percentage of cells appearing with a ploidy level smaller than a diploid content was calculated as an estimate of cells undergoing apoptosis.

pS2 mRNA = experiment: Semi-quantitative RT-PCR of pS2 mRNA in MCF-7 cells; conditions: 100 μM, observed after 8 to 12 hours
Description: Total RNA preparation and Reverse Transcription Polymerase Chain Reaction (RT-PCR): Total RNA from MCF-7 cells was prepared with Trizol (Invitrogen, Carlsbad, Calif.) as described before (41). For reverse transcription, 2 μg of RNA were used in a […] with random primers and M-MLV reverse transcriptase (Invitrogen, Carlsbad, Calif.), following the manufacturer's protocol. To control for possible contamination from genomic DNA in subsequent PCR reactions, control reverse transcription reactions were carried out under identical conditions, only without reverse transcriptase. After reverse transcription, 5% of the product was used in each PCR reaction. For the experiments analyzing A3 adenosine receptor (A3AR) expression, 27 cycles were used in the PCR reactions. Specific primers were designed for human A3AR, which match to two separate exons, according to genomic sequences (from GenBank). Sequences for the sense and antisense A3AR primers are: 5′tccatcatgtccttgctg3′ (SEQ ID NO: 1) and 5′gcacatgacaaccaggg3′ (SEQ ID NO.: 2). In the experiments analyzing estrogen receptor a (ERα) mRNA, semi-quantitative PCR reactions were carried out with 23 cycles for ERα primers and 19 cycles for GAPDH primers (used as a control). The cycle numbers were tested in previous experiments not to produce saturation effects. […]

HeLa cells = experiment: Anchorage-independent growth (soft agar) assay; conditions: 100 μM, two weeks
Description: (§1) Anchorage-independent growth (soft agar) assay: Soft agar assay was performed as described (40) with the following modifications. Ligands were added into the bottom and top agar before plating into 6-well plates. Cells were treated with trypsin (Invitrogen, Carlsbad, Calif.) for 5 minutes in a 37° C. incubator and pipetted several times so that most cells were in single cell forms. Cells were counted with a hemacytometer (Hausser Scientific/VWR, So. Plainfield, N.J.), and 10,000 cells were mixed with top agar and plated into each well. After the top agar had solidified, two ml of medium containing the same treatment was added on top of the agar. This covering medium was changed every two days during culture. After two weeks of culture, each well was counted for the number of colonies formed on an Olympus IX70 microscope under 40× optical amplification. A cell colony was defined as any cluster of cells that contain more than 3 cells. The average of counts from 3 random optical fields for each well was taken as the colony number and analyzed. Each treatment was performed in triplicates. The averages and standard deviations shown in the figures were calculated based on triplicate experiments.

T47D cells = experiment: Anchorage-independent growth (soft agar) assay; conditions: 100 μM, two weeks
Description: as §1

Hs578T cells = experiment: Anchorage-independent growth (soft agar) assay; conditions: 100 μM, two weeks
Description: as §1

ZR-75 cells = experiment: Anchorage-independent growth (soft agar) assay; conditions: ZR-75 soft agar; 100 μM; two weeks
Description: as §1

MCF-7 cells [2] = experiment: Anchorage-independent growth (soft agar) assay
Description: as §1

CNC(=O)[C@H]1O[C@@H](n2cnc3c(NCc4cccc(I)c4)ncnc32)[C@H](O)[C@@H]1O [IB-MECA, N^6-(3-iodobenzyl)adenosine-5′-N-methyluronamide]
Percentage of cells in G2/M (tetraploid DNA content) (MCF-7 cells [1]; 100 μM for 2 days, vehicle 24.6%): 23.4% and 23%
Percentage of cells in S phase (MCF-7 cells [1]; 100 μM for 2 days, vehicle 25.2%): 12.3% and 12%
Percentage of cells in G1 phase (diploid DNA content) (MCF-7 cells [1]; 100 μM for 2 days, vehicle 50.2%): 64.2% and 64%
Percentage change of diploid (G0 or G1 phase) population compared to vehicle-treated cells (MCF-7 cells [1]; 100 μM, except adenosine (500 μM) and inosine (1 mM), first number in parentheses): 28%
Percentage change of S phase population compared to vehicle-treated cells (MCF-7 cells [1]; 100 μM, except adenosine (500 μM) and inosine (1 mM), second number in parentheses): −51%
Percentage change of tetraploid (G2 or M phase) population compared to vehicle-treated cells (MCF-7 cells [1]; 100 μM, except adenosine (500 μM) and inosine (1 mM), third number in parentheses): −5%
pS2 mRNA level (pS2 mRNA): reduced
Colony formation, in words (HeLa cells): mild response
Colony formation, in words (T47D cells): dramatic decrease in colony formation
Colony formation, in words (Hs578T cells): dramatic decrease in colony formation
Colony formation, in words (ZR-75 cells): dramatic decrease in colony formation
Concentration at which the cell growth inhibitory effect is observed (MCF-7 cells [2]; MCF-7): higher than 10 μM
Effect on anchorage-independent growth (colony formation), in words (MCF-7 cells [2]; MCF-7 soft agar, different concentrations, two weeks): dose-dependent inhibition
